# Publication PMC12467033, “Exploring the Inhibitory Potential of Six Porphyrin Compounds Against α-Amylase and α-Glucosidase Linked to Diabetes” (Biomolecules, 2025)
# “And” between values parts separate entries of the source, which are not always exact repeats. Equal values may be shown once. Read-outs that look alike come from different tables or passages of the source.
# Legend:
# α-amylase [1] = biological target: T1, α-amylase (Sus scrofa, UniProt P00690); assay: α-Amylase inhibitory activity assay (Gal-G2-α-CNP substrate); type: biochemical; settings: 37 °C, pH 6.8
# T1 sequence (P00690 16-511): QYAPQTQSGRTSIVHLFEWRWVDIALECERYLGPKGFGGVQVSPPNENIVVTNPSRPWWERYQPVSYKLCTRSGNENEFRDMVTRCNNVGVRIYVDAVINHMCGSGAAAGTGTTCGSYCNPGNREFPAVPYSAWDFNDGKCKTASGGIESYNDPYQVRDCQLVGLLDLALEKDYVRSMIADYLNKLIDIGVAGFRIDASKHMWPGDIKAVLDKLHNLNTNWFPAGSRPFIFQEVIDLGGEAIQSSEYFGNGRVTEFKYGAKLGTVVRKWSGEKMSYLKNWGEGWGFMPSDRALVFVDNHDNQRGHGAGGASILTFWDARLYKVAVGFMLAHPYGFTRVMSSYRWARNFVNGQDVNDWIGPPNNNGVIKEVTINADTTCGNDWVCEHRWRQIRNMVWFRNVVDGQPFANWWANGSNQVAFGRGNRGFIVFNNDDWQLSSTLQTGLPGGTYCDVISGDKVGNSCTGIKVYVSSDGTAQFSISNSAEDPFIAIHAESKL
# Procedure: The inhibitory activity detection process was slightly modified, with reference as the base method from the literature. […] After thorough mixing, the samples were pre-incubated at 37 °C for 10 min. Subsequently, 100 μL of 5 mmol/L Gal-G2-α-CNP substrate was added to each sample. Following a 3 min reaction period, the absorbance of the solutions at 405 nm was measured using a microplate reader. The inhibition rate (%) was calculated based on the absorbance readings according to Formula (1).(1) inhibition rate%=(1−(A1−A2)/(A3−A4))×100
# In the formula, A1 represents the sample group; A2 represents the sample control group (where the enzyme was replaced with phosphate buffer); A3 represents the blank control group; and A4 represents the reagent blank control group (containing blank sample solution and phosphate buffer).
# (§1) Using the enzyme inhibition rate as the y-axis and the inhibitor concentration as the x-axis, the IC50 value was calculated through linear regression fitting with GraphPad Prism software (5.0).
# α-glucosidase [2] = biological target: T2, α-glucosidase (Saccharomyces cerevisiae, UniProt P53341); assay: α-Glucosidase inhibitory activity assay (pNPG substrate); type: biochemical; settings: 37 °C
# T2 sequence (P53341 whole entry): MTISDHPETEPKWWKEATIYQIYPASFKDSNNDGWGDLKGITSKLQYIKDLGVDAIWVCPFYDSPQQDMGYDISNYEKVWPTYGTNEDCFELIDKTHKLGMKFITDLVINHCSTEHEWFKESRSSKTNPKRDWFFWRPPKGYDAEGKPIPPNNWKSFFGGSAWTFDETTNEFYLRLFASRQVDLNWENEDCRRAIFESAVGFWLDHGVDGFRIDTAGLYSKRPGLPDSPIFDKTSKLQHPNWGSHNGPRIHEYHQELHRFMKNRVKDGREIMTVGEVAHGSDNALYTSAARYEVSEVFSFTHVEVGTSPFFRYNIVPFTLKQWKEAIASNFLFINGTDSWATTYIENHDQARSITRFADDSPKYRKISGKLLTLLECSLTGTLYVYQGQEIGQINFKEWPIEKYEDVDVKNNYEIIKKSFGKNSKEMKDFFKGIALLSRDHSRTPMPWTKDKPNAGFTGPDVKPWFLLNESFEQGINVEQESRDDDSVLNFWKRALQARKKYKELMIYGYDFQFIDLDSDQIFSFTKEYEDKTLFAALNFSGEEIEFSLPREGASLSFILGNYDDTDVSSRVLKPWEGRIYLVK
# Procedure: The experimental groups were supplemented with different concentrations of porphyrin compounds, followed by the addition of 100 μL of 5 mmol/L pNPG. After thorough mixing, the samples were pre-incubated at 37 °C for 10 min. Subsequently, the reaction was terminated by adding 0.1 mol/L of sodium carbonate (Na2CO3) solution. Following a 3 min reaction period, the absorbance of the solutions at 405 nm was measured using a microplate reader. The inhibition rate (%) was subsequently calculated using Formula (1).
# as §1
# α-amylase [3] = biological target: T1, α-amylase; assay: Mode of α-AMY inhibition (reversibility, Lineweaver–Burk kinetics); type: biochemical; settings: for type of inhibition of α-amylase: Lineweaver–Burk plots; for reversibility of inhibition of α-amylase: enzyme 100–400 U/L, substrate 5 mmol/L; for Kis: enzyme–substrate complex inhibition constant; for Ki: free enzyme inhibition constant
# Text: In the experiment, the concentration of the fixed substrate Gal-G2-α-CNP/pNPG solution was 5 mmol/L, and the concentrations of the two enzymes (100, 200, 300, 400 U/L) were used to determine the effect of different concentrations of porphyrins on enzyme activity. The concentration of the enzyme was 200 U/L, and the concentration of the substrate Gal-G2-α-CNP/pNPG solution (2.5, 5, 7.5, 10 mmol/L) was used to determine the effect of different concentrations of porphyrins on the enzyme-catalyzed substrate activity.
# Upon identifying the type of inhibition, the kinetic equations vary for different inhibition types.
# In the formula, v, Vmax, Km, Ki, and Kis represent the reaction rate, maximum reaction rate, Michaelis constant, and free enzyme inhibition constant, respectively, and the binding enzyme inhibition constant. [S] denotes the substrate concentration. [I] denotes the inhibitor concentration.
# α-amylase [4] = biological target: T1, α-amylase; assay: In vitro stability study (temperature, pH), inhibition rate against α-amylase; type: physicochemical; settings: water bath 30–100 °C, 20 min
# Procedure: (§2) Samples of a certain mass concentration were subjected to a water bath at different temperatures (30, 40, 50, 60, 70, 80, 90, 100 °C) for 20 min and treated under different pH conditions (2.0, 3.0, 4.0, 5.0, 6.0, 7.0, 8.0, 9.0, and 10.0) for 20 min to determine the effect of temperature and pH on the stability of the two enzymes.
# α-glucosidase [5] = biological target: T2, α-glucosidase; assay: In vitro stability study (temperature, pH), inhibition rate against α-glucosidase; type: physicochemical; settings: water bath 30–100 °C, 20 min
# Procedure: as §2
# α-glucosidase [6] = biological target: T2, α-glucosidase; assay: FTIR secondary structure analysis of α-GLU complexes; settings: enzyme–porphyrin molar ratio 1:2, amide I band
# Text: A molar ratio of 1:2 (α-amylase/α-glucosidase)–porphyrin solution was placed in a cryocentrifugal concentrator and the dried solid sample was mixed with dry KBr and measured using a Nicolet IS-50 FTIR Spectrometer (ThermoFisher, Waltham, MA, USA) with a scanning range of 4000–400 cm^−1 and a resolution of 4 cm^−1. The overlapping peaks in the amide I band (1700–1600 cm^−1) were further analyzed into multiple feature sub-peaks, and quantitative analysis of the relative content of various secondary structures in proteins using curve fitting methods was performed.
# HepG2 cells = assay: MTT cytotoxicity assay; type: cell-based, human; settings: 24 h
# Procedure: (§3) The cytotoxicity of six porphyrin compounds against human hepatocellular carcinoma HepG2 cells was evaluated using the MTT assay. HepG2 cells were seeded into 96-well plates at a density of 5000 cells per well and cultured for 24 h at 37 °C in a 5% CO2 incubator. Then, 100 µL of sample solutions at various concentrations (50, 100, and 200 µg/mL) was added to the experimental wells, with blank control wells and solvent control wells also included. The cells were further incubated for 24 h. After incubation, 10 µL of MTT solution (5 mg/mL) was added to each well, and the plates were incubated for another 4 h. Subsequently, 100 µL of Formazan solubilization solution was added to each well, followed by gentle mixing. The plates were returned to the incubator and maintained until complete dissolution of Formazan crystals was observed under a microscope. The absorbance at 570 nm was measured using a microplate reader (Meigu Molecular Instrument Company, Shanghai, China), and the survival rate of HepG2 cells was calculated.(12) Cell viability=As-Ab/Ac-Ab×100%
# (§4) In the formula, As represents the absorbance of the sample well, Ac denotes the absorbance of the blank control well (without the drug), and Ab refers to the absorbance of the solvent control well (devoid of both cells and the drug).
# MTT cytotoxicity assay = type: cell-based, human; settings: human, HepG2 cells; for viability at 24 h: read-out: cell viability
# Procedure: as §3, §4
Compound,IC50 α-amylase (α-amylase [1]) [µg/mL],IC50 α-GLU (α-glucosidase [2]) [µg/mL],Km (α-amylase [3]; C 25 μg/mL) [µg/mL],Vmax (α-amylase [3]; C 25 μg/mL),Km (α-amylase [3]; C 50 μg/mL) [µg/mL],Vmax (α-amylase [3]; C 50 μg/mL),Km (α-amylase [3]; C 100 μg/mL) [µg/mL],Vmax (α-amylase [3]; C 100 μg/mL),Vmax (α-amylase [3]; C 150 μg/mL),Vmax (α-amylase [3]; C 200 μg/mL),type of inhibition of α-amylase (α-amylase [3]),reversibility of inhibition of α-amylase (α-amylase [3]),Kis (α-amylase [3]) [µg/mL],thermal stability: inhibition rate against α-amylase (α-amylase [4]),thermal stability: inhibition rate against α-glucosidase (α-glucosidase [5]),Random Coil (α-glucosidase [6]),α-Helix (α-glucosidase [6]) [%],β-Antiparallel (α-glucosidase [6]),β-Sheet (α-glucosidase [6]) [%],β-Turn (α-glucosidase [6]) [%],also measured
"O=C(O)c1ccc(-c2c3nc(c(-c4ccc(C(=O)O)cc4)c4ccc([nH]4)c(-c4ccc(C(=O)O)cc4)c4nc(c(-c5ccc(C(=O)O)cc5)c5ccc2[nH]5)C=C4)C=C3)cc1.[Cu+2] [Cu–TCPP, copper (II) meso-tetra (4-carboxyphenyl)porphyrin]",245.04 ± 0.26,25.33 ± 0.55,2.8021 ± 0.0410,0.1101 ± 0.0016 ΔOD/min,3.1685 ± 0.0729,0.1050 ± 0.0024 ΔOD/min,3.5949 ± 0.0569,0.0923 ± 0.0015 ΔOD/min,0.0860 ± 0.0031 ΔOD/min,0.0785 ± 0.0012 ΔOD/min,mixed type,reversible inhibition,420.9420 ± 0.2189,small fluctuations,remained relatively stable,25.05 ± 0.07%,23.65 ± 0.03,2.59 ± 0.01%,10.93 ± 0.05,37.78 ± 0.09,"Km (α-amylase [3]; C 150 μg/mL): 3.9016 ± 0.1355 µg/mL; Km (α-amylase [3]; C 200 μg/mL): 4.2470 ± 0.0673 µg/mL; Ki (α-amylase [3]): 135.8043 ± 0.1608 µg/mL; cell viability (survival rate) (HepG2 cells; HepG2, 200 μg/mL): 43.13 ± 5.53%; cell viability (HepG2 cells; HepG2, 50–100 μg/mL): above 80%"
Nc1ccc(-c2c3nc(c(-c4ccc(N)cc4)c4ccc([nH]4)c(-c4ccc(N)cc4)c4nc(c(-c5ccc(N)cc5)c5ccc2[nH]5)C=C4)C=C3)cc1 [TAPP],–,–,–,–,–,–,–,–,–,–,mixed type,reversible inhibition,21.2847 ± 0.0677,–,–,23.93 ± 0.05%,22.82 ± 0.08,1.96 ± 0.01%,12.99 ± 0.13,38.30 ± 0.08,"Vmax (α-amylase [3]; C 2 μg/mL): 0.1670 ± 0.0030 ΔOD/min; Vmax (α-amylase [3]; C 4 μg/mL): 0.1562 ± 0.0039 ΔOD/min; Vmax (α-amylase [3]; C 6 μg/mL): 0.1425 ± 0.0032 ΔOD/min; Vmax (α-amylase [3]; C 8 μg/mL): 0.1328 ± 0.0034 ΔOD/min; Vmax (α-amylase [3]; C 10 μg/mL): 0.1243 ± 0.0028 ΔOD/min; viability at 24 h (MTT cytotoxicity assay; HepG2, 50–200 μg/mL): > 97%"
O=C(O)c1ccc(-c2c3nc(c(-c4ccc(C(=O)O)cc4)c4ccc([nH]4)c(-c4ccc(C(=O)O)cc4)c4nc(c(-c5ccc(C(=O)O)cc5)c5ccc2[nH]5)C=C4)C=C3)cc1 [TCPP],–,–,–,0.1046 ± 0.0025 ΔOD/min,–,0.0872 ± 0.0014 ΔOD/min,–,0.0709 ± 0.0018 ΔOD/min,0.0583 ± 0.0021 ΔOD/min,0.0496 ± 0.0007 ΔOD/min,mixed type,reversible inhibition,132.4382 ± 0.1403,small fluctuations,remained relatively stable,22.15 ± 0.04%,22.71 ± 0.05,9.57 ± 0.02%,12.03 ± 0.02,33.54 ± 0.07,"viability at 24 h, 200 µg/mL (MTT cytotoxicity assay; HepG2, 200 μg/mL, read-out: cell viability (survival rate)): 30.3 ± 3.45%; viability at 24 h (MTT cytotoxicity assay; HepG2, 50–100 μg/mL): > 80%"
Oc1ccc(-c2c3nc(c(-c4ccc(O)cc4)c4ccc([nH]4)c(-c4ccc(O)cc4)c4nc(c(-c5ccc(O)cc5)c5ccc2[nH]5)C=C4)C=C3)cc1 [THPP],–,–,–,–,–,0.0426 ± 0.0013 ΔOD/min,–,–,–,–,mixed type,reversible inhibition,23.1012 ± 0.1027,small fluctuations,remained relatively stable,23.74 ± 0.06%,21.19 ± 0.05,7.07 ± 0.01%,12.79 ± 0.03,35.20 ± 0.11,"Vmax (α-amylase [3]; C 20 μg/mL): 0.0740 ± 0.0028 ΔOD/min; Vmax (α-amylase [3]; C 30 μg/mL): 0.0580 ± 0.0010 ΔOD/min; Vmax (α-amylase [3]; C 40 μg/mL): 0.0491 ± 0.0012 ΔOD/min; Vmax (α-amylase [3]; C 60 μg/mL): 0.0376 ± 0.0012 ΔOD/min; cytotoxicity (in words) (HepG2 cells; HepG2, 50–200 μg/mL): certain cytotoxic effects"
iron (III) meso-tetra (4-carboxyphenyl) porphyrin chloride [Fe–TCPP],95.75 ± 0.62,23.93 ± 0.53,2.7329 ± 0.0882,0.1143 ± 0.0037 ΔOD/min,2.9384 ± 0.0447,0.0972 ± 0.0015 ΔOD/min,3.2079 ± 0.1016,0.0748 ± 0.0024 ΔOD/min,0.0601 ± 0.0009 ΔOD/min,0.0512 ± 0.0007 ΔOD/min,mixed type,reversible inhibition,117.2152 ± 0.1432,small fluctuations,remained relatively stable,16.75% and 16.75 ± 0.03%,22.48 ± 0.05,8.02% and 8.02 ± 0.02%,–,–,Km (α-amylase [3]; C 150 μg/mL): 3.3360 ± 0.0508 µg/mL; Km (α-amylase [3]; C 200 μg/mL): 3.4920 ± 0.0491 µg/mL; Ki (α-amylase [3]): 69.5865 ± 0.1284 µg/mL
